# Data published in PubChem BioAssay (NCI).
# Values joined by “and” are separate entries in the source; they are usually repeats but may differ in a detail not shown here. Equal values may be shown once.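 Exposure lasted 48 hours, with cells grown in 96-well plates and compounds tested at five concentrations. Abbreviation: GI50, concentration required for 50% inhibition of growth. The concentration for full growth arrest is given as TGI.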
# What was measured:
# Test in all cases: NCI anticancer screen, dose series, 48 h
# SF-268 CNS = system: SF-268 CNS
# MDA-MB-435 = system: MDA-MB-435
# SNB-75 CNS = system: SNB-75 CNS
# SK-MEL-5 melanoma = system: SK-MEL-5 melanoma
# K-562 leukemia = system: K-562 leukemia
# SK-OV-3 ovarian = system: SK-OV-3 ovarian
# NCI-H226 lung = system: NCI-H226 lung
# HL-60(TB) leukemia = system: HL-60(TB) leukemia
# EKVX NSCLC = system: EKVX NSCLC
# RXF 393 renal = system: RXF 393 renal
# A498 renal = system: A498 renal
# MDA-MB-231 breast = system: MDA-MB-231 breast
# HOP-92 NSCLC = system: HOP-92 NSCLC
# SK-MEL-28 melanoma = system: SK-MEL-28 melanoma
# PC-3 prostate = system: PC-3 prostate
# HCT-15 colon = system: HCT-15 colon
# TK-10 renal = system: TK-10 renal
# SF-295 CNS = system: SF-295 CNS
# HOP-62 NSCLC = system: HOP-62 NSCLC
# 786-0 renal = system: 786-0 renal
# KM12 colon = system: KM12 colon
# SW-620 colon = system: SW-620 colon
# HT29 colon = system: HT29 colon
# MALME-3M melanoma = system: MALME-3M melanoma
# NCI-H460 lung = system: NCI-H460 lung
# HS 578T breast = system: HS 578T breast
# SN12C renal = system: SN12C renal
# RPMI-8226 leukemia = system: RPMI-8226 leukemia
# SK-MEL-2 melanoma = system: SK-MEL-2 melanoma
# T-47D breast = system: T-47D breast
# OVCAR-3 ovarian = system: OVCAR-3 ovarian
# UACC-62 melanoma = system: UACC-62 melanoma
# IGROV1 ovarian = system: IGROV1 ovarian
# CCRF-CEM leukemia = system: CCRF-CEM leukemia
# OVCAR-5 ovarian = system: OVCAR-5 ovarian
# SF-539 CNS = system: SF-539 CNS
# MOLT-4 leukemia = system: MOLT-4 leukemia
# M14 melanoma = system: M14 melanoma
# COLO 205 colon = system: COLO 205 colon
# NCI/ADR-RES ovarian = system: NCI/ADR-RES ovarian
# SNB-19 CNS = system: SNB-19 CNS
# NCI-H522 lung = system: NCI-H522 lung
# HCC-2998 colon = system: HCC-2998 colon
# LOX IMVI melanoma = system: LOX IMVI melanoma
# A549 NSCLC = system: A549 NSCLC
# ACHN renal = system: ACHN renal
# BT-549 breast = system: BT-549 breast
# NCI-H23 lung = system: NCI-H23 lung
# HCT-116 colon = system: HCT-116 colon
# OVCAR-4 ovarian = system: OVCAR-4 ovarian
# UO-31 renal = system: UO-31 renal
# MCF7 breast = system: MCF7 breast
# U251 CNS = system: U251 CNS
# SR leukemia = system: SR leukemia
# OVCAR-8 ovarian = system: OVCAR-8 ovarian
compound,measurement,setting,value
COC(=O)[C@@H](C)C[C@H](Cc1ccccc1)NC(=O)c1csc([C@@H](C[C@H](C(C)C)N(C)C(=O)[C@@H](NC(=O)[C@H]2CCCCN2C)C(C)C)OC(C)=O)n1,GI50,SF-268 CNS,0.671 nM and 2.5 nM
same,TGI,SF-268 CNS,> 25000 nM
same,GI50,MDA-MB-435,< 0.1 nM
same,TGI,MDA-MB-435,0.135 nM and < 2.5 nM
same,TGI,SNB-75 CNS,> 25000 nM
same,GI50,SK-MEL-5 melanoma,< 0.1 nM
same,TGI,SK-MEL-5 melanoma,3.01 nM and < 2.5 nM
same,TGI,K-562 leukemia,> 25000 nM
same,TGI,SK-OV-3 ovarian,> 25000 nM
same,GI50,NCI-H226 lung,2.5 nM
same,TGI,NCI-H226 lung,> 25000 nM
same,GI50,HL-60(TB) leukemia,0.187 nM and < 2.5 nM
same,TGI,HL-60(TB) leukemia,0.627 nM and < 2.5 nM
same,GI50,EKVX NSCLC,0.617 nM and 3.56 nM
same,TGI,EKVX NSCLC,> 25000 nM
same,GI50,RXF 393 renal,2.5 nM
same,TGI,RXF 393 renal,> 25000 nM
same,GI50,A498 renal,0.176 nM and < 2.5 nM
same,TGI,A498 renal,0.694 nM and < 2.5 nM
same,GI50,MDA-MB-231 breast,0.506 nM and 2.5 nM
same,TGI,MDA-MB-231 breast,11.6 nM
same,GI50,HOP-92 NSCLC,0.692 nM and < 2.5 nM
same,GI50,SK-MEL-28 melanoma,2.5 nM
same,TGI,SK-MEL-28 melanoma,> 25000 nM
same,TGI,PC-3 prostate,> 25000 nM
same,GI50,HCT-15 colon,0.31 nM and 2.5 nM
same,TGI,HCT-15 colon,> 25000 nM
same,GI50,TK-10 renal,22.3 nM and 2.5 nM
same,TGI,TK-10 renal,> 25000 nM
same,TGI,SF-295 CNS,13100 nM
same,GI50,HOP-62 NSCLC,0.396 nM and 2.5 nM
same,TGI,HOP-62 NSCLC,> 25000 nM
same,GI50,786-0 renal,0.331 nM and 2.5 nM
same,TGI,786-0 renal,24500 nM
same,TGI,KM12 colon,> 25000 nM
same,TGI,SW-620 colon,> 25000 nM
same,TGI,HT29 colon,> 25000 nM
same,GI50,MALME-3M melanoma,8670 nM
same,TGI,MALME-3M melanoma,> 25000 nM
same,TGI,NCI-H460 lung,> 25000 nM
same,GI50,HS 578T breast,0.641 nM
same,GI50,SN12C renal,0.567 nM and 2.5 nM
same,TGI,SN12C renal,> 25000 nM
same,TGI,RPMI-8226 leukemia,7540 nM
same,GI50,SK-MEL-2 melanoma,0.256 nM
same,GI50,T-47D breast,> 25000 nM
same,TGI,T-47D breast,> 25000 nM
same,GI50,OVCAR-3 ovarian,< 0.1 nM
same,TGI,UACC-62 melanoma,> 25000 nM
same,GI50,IGROV1 ovarian,0.308 nM and 2.5 nM
same,TGI,IGROV1 ovarian,> 25000 nM
same,GI50,CCRF-CEM leukemia,0.425 nM and 2.5 nM
same,TGI,CCRF-CEM leukemia,> 25000 nM
same,GI50,OVCAR-5 ovarian,0.369 nM and 2.5 nM
same,TGI,OVCAR-5 ovarian,> 25000 nM
same,GI50,SF-539 CNS,0.294 nM and < 2.5 nM
same,TGI,SF-539 CNS,2.09 nM and < 2.5 nM
same,GI50,MOLT-4 leukemia,0.5 nM and 2.5 nM
same,TGI,MOLT-4 leukemia,> 25000 nM
same,GI50,M14 melanoma,0.134 nM
same,TGI,M14 melanoma,0.531 nM
same,GI50,COLO 205 colon,< 2.5 nM
same,TGI,COLO 205 colon,< 2.5 nM
same,GI50,NCI/ADR-RES ovarian,3.83 nM and 2.5 nM
same,TGI,NCI/ADR-RES ovarian,> 25000 nM
same,TGI,SNB-19 CNS,> 25000 nM
same,GI50,NCI-H522 lung,0.178 nM
same,TGI,NCI-H522 lung,0.897 nM
same,GI50,HCC-2998 colon,0.356 nM and 2.5 nM
same,TGI,HCC-2998 colon,> 25000 nM
same,GI50,LOX IMVI melanoma,0.695 nM and 2.5 nM
same,TGI,LOX IMVI melanoma,> 25000 nM
same,GI50,A549 NSCLC,0.457 nM and 2.5 nM
same,TGI,A549 NSCLC,> 25000 nM
same,GI50,ACHN renal,0.417 nM and 2.5 nM
same,TGI,ACHN renal,> 25000 nM
same,GI50,BT-549 breast,0.284 nM and < 2.5 nM
same,TGI,BT-549 breast,18.3 nM and < 2.5 nM
same,GI50,NCI-H23 lung,0.395 nM and 2.5 nM
same,TGI,NCI-H23 lung,> 25000 nM
same,TGI,HCT-116 colon,> 25000 nM
same,TGI,OVCAR-4 ovarian,> 25000 nM
same,GI50,UO-31 renal,0.932 nM and 2.5 nM
same,TGI,UO-31 renal,> 25000 nM
same,TGI,MCF7 breast,> 25000 nM
same,GI50,U251 CNS,0.396 nM and 2.5 nM
same,TGI,U251 CNS,> 25000 nM
same,TGI,SR leukemia,> 25000 nM
same,GI50,OVCAR-8 ovarian,0.519 nM and 2.5 nM
same,TGI,OVCAR-8 ovarian,> 25000 nM
